Source: US20260232625A1, “NOVEL DECURSIN DERIVATIVE AND USE THEREOF FOR PREVENTING OR TREATING NON-SMALL CELL LUNG CANCER” (JAEIN R&P INC., priority 2023, published 2026)
“Also recorded” adds a separate entry of the source.

Tests used:
A549 = assay: MTT cytotoxicity evaluation against A549 cells; assay type: cell-based, human; conditions: for IC50: Homo sapiens, A549, 48 h, 48 hours
Protocol: (§1) A549 (human lung cancer cells) were obtained from the American Type Culture Collection (ATCC) and used. The cells were cultured in a medium containing 10% FBS, 1% penicillin (10,000 units/mL), and streptomycin (10 mg/mL), or in Dulbecco's Modified Eagle's Medium (DMEM), at 37° C. under 5% CO2 conditions.
To measure cytotoxicity, an MTT assay was used. Specifically, A549 cells cultured according to Experimental Example 1 were seeded into a 96-well plate at a density of 2.5×10^4 cells/mL in 100 μL, and incubated for 24 hours. Thereafter, the cells were treated with either the compounds prepared according to Examples 1 to 27 or, as comparative agents, decursin or docetaxel. The prepared compounds and decursin were each administered to the A549 cell line at concentrations of 0 μM (untreated), 12.5 μM, 25 μM, 50 μM, 100 μM, and 200 μM, while docetaxel was administered at concentrations of 0 nM (untreated), 0.1 nM, 1 nM, 10 nM, 100 nM, and 1,000 nM, followed by incubation for an additional 48 hours. Then, 20 μL of MTT solution was added (Method 1). Alternatively, the compounds prepared according to Examples 28 to 30, the compound of Example 5 as a reference compound or, as comparative agents, decursin or docetaxel, were used. The prepared compounds, the compound of Example 5, and decursin were each administered at concentrations of 0 μM (untreated), 3.125 μM, 6.25 μM, 12.5 μM, 25 μM, and 50 μM, while docetaxel was administered at concentrations of 0 nM (untreated), 0.6 nM, 1.25 nM, 2.5 nM, 5 nM, and 10 nM, and treated in the same manner as described in Method 1 (Method 2). The cells treated with MTT solution were incubated for 2 hours, the medium was removed, and the formazan blue crystals formed by the cells were treated with an MTT lysis buffer, followed by incubation in a cell incubator for 24 hours. The MTT lysis buffer was prepared by mixing N,N-dimethylformamide with water in a 1:1 ratio to give a solution containing 20% SIDS (sodium dodecyl sulfate) at the final concentration. The optical density at 590 nm was measured using a microplate reader (FIGS. 1a to 1d). Based on the measured values, the cytotoxicity (IC50) against A549 was calculated, and the results are disclosed in Table 1 together with the structural formulae.

A549 cells = assay: Co-administration with gefitinib, MTT cell viability and synergy score in A549 cells; assay type: cell-based, human; conditions: for cytotoxicity against A549 on co-administration with gefitinib: gefitinib 1.25-20 μM plus compound 6.25-100 μM, compared with decursin plus gefitinib, FIG. 2
Protocol: as §1
Nevertheless, the compound of Example 5, when used as a single agent, was somewhat limited in its efficacy, and therefore its potential as a co-administration agent with existing non-small cell lung cancer therapeutic agents was examined. To this end, gefitinib (Iressa) was selected, and the compound of Example 5, together with decursin for comparison, was co-administered to A549 cells, and the cytotoxicity thereof was measured. To further evaluate dose dependency, gefitinib was administered at concentrations of 0 μM (untreated), 1.25 μM, 2.5 μM, 5 μM, 10 μM, and 20 μM, in combination with either decursin or the […], each administered at concentrations of 0 μM (untreated), 6.25 μM, 12.5 μM, 25 μM, 50 μM, and 100 μM. The relative cell viability was measured by setting the viability of the untreated group, i.e., cells not treated with either gefitinib or decursin/decursin derivative, to 100%, and the results are shown in FIG. 2. Cell viability was determined using an MTT assay. […] In particular, as the concentration of the decursin derivative increased to 12.5 μM or higher, the difference in cell-killing effect became more pronounced.
Furthermore, the synergy score of the cytotoxicity of the combination of gefitinib with decursin or with the decursin derivative compound of Example 5 against A549 cells was calculated using the Synergyfinder webtool, and the results are shown in FIG. 3. A calculated synergy score of 10 or more was considered to indicate a synergistic effect, a score between −10 and 10 was considered to indicate an additive effect, and a score below −10 was considered to indicate an antagonistic effect.

SMILES	IC50 (A549; Method 1: 12.5-200 μM) [µM]	IC50 (A549; Method 2 (marked *): 3.125-50 μM) [µM]	cell-killing effect against human lung cancer cell line A549 compared to decursin (A549; single agent)	synergy score of cytotoxicity against A549 (A549 cells; 10 μM gefitinib plus 6.25 μM compound, Synergyfinder webtool, score of 10 or more = synergistic)	cytotoxicity against A549 on co-administration with gefitinib (A549 cells)	cytotoxicity against A549 on co-administration with gefitinib (A549 cells; listed as compound of Formula 2)
CC1(C)Oc2cc3oc(=O)ccc3cc2C[C@@H]1OC(=O)/C=C/c1ccoc1 [Example 5, (S,E)-2,2-dimethyl-8-oxo-2,3,4,8-tetrahydropyrano[3,2-g]chromen-3-yl 3-(furan-3-yl)acrylate]	30.3	7.88	superior cell-killing effect; also recorded: most potent effect	~15	superior to that observed with co-administration of decursin and gefitinib	synergistic cell-killing effect
CC1(C)Oc2cc3oc(=O)ccc3cc2C[C@H]1OC(=O)/C=C/c1ccc2c(c1)OCO2 [Example 16, (R,E)-2,2-dimethyl-8-oxo-2,3,4,8-tetrahydropyrano[3,2-g]chromen-3-yl 3-(benzo[d][1,3]dioxol-5-yl)acrylate]	> 200					
